Test results as given in US20030032662A1, “Micronized leflunomide” (priority 2000, published 2003).

Assay: Particle size after micronizing in a micronizer
Assay type: physicochemical
Settings: pure dry leflunomide micronized in a micronizer (Example 1)
Text: Pure dry leflunomide was micronized in a micronizer. The result was micronized leflunomide of a particle size of less than 5 micrometer.

Cc1oncc1C(=O)Nc1ccc(C(F)(F)F)cc1 [micronized leflunomide, N-(4′-trifluoromethylphenyl)-5-methylisoxazole-4-carboxamide]
particle size: less than 5 micrometer
